Test system: poliovirus
Assay type: cell-based

## Cc1ncnc2c1ncn2[C@@H]1O[C@H](CO)[C@@H](O)[C@H]1O [Compound 2, 6-methyl-9-β-D-ribofuranosylpurine, reference compound]
  Frequency of viral mutagenesis compared to ribavirin: neither 6 nor 2 increased the frequency of viral mutagenesis

## Cc1ncnc2c1ccn2[C@@H]1O[C@H](CO)[C@@H](O)[C@H]1O [Compound 6, 4-Methyl-7-β-D-ribofuranosylpyrrolo[2,3-d]pyrimidine]
  Frequency of viral mutagenesis compared to ribavirin: neither 6 nor 2 increased the frequency of viral mutagenesis

Source: article PMC2990348 (Journal of medicinal chemistry, 2010)
